Numbers after ± are expanded uncertainties.
Columns and labels:
[1] = Liquid, Closed cell (Static) method
[2] = molar heat capacity at constant pressure; conditions: 101 kPa, Power-Compensation Calorimetry
[3] = wn = mass fraction of the nth substance listed; conditions: 101 kPa, Liquid, Capillary tube (Ostwald / Ubbelohde) method, w1 = 0.9

O [water]
vapor or sublimation pressure ([1]; 274.15 K): 0.671 ± 0.029 kPa
vapor or sublimation pressure ([1]; 276.15 K): 0.778 ± 0.034 kPa
vapor or sublimation pressure ([1]; 279.15 K): 0.956 ± 0.041 kPa
vapor or sublimation pressure ([1]; 282.15 K): 1.171 ± 0.05 kPa
vapor or sublimation pressure ([1]; 285.15 K): 1.428 ± 0.061 kPa
vapor or sublimation pressure ([1]; 288.15 K): 1.739 ± 0.074 kPa
vapor or sublimation pressure ([1]; 291.15 K): 2.103 ± 0.089 kPa
vapor or sublimation pressure ([1]; 294.15 K): 2.525 ± 0.11 kPa
vapor or sublimation pressure ([1]; 297.15 K): 3.035 ± 0.13 kPa
vapor or sublimation pressure ([1]; 300.15 K): 3.62 ± 0.15 kPa
vapor or sublimation pressure ([1]; 303.15 K): 4.299 ± 0.18 kPa
vapor or sublimation pressure ([1]; 304.45 K): 4.659 ± 0.19 kPa
vapor or sublimation pressure ([1]; 306.15 K): 5.104 ± 0.21 kPa
vapor or sublimation pressure ([1]; 308.55 K): 5.85 ± 0.24 kPa
vapor or sublimation pressure ([1]; 313.45 K): 7.631 ± 0.32 kPa
vapor or sublimation pressure ([1]; 318.15 K): 9.698 ± 0.4 kPa
vapor or sublimation pressure ([1]; 323.45 K): 12.68 ± 0.52 kPa
vapor or sublimation pressure ([1]; 328.65 K): 16.35 ± 0.67 kPa
vapor or sublimation pressure ([1]; 333.15 K): 20.22 ± 0.83 kPa
vapor or sublimation pressure ([1]; 337.45 K): 24.61 ± 1 kPa
vapor or sublimation pressure ([1]; 345.65 K): 35.27 ± 1.4 kPa
vapor or sublimation pressure ([1]; 353.85 K): 49.37 ± 2 kPa
vapor or sublimation pressure ([1]; 364.35 K): 74.26 ± 3 kPa
vapor or sublimation pressure ([1]; 372.15 K): 99.51 ± 4 kPa

CCCCn1cc[n+](C)c1.[Br-] [1-butyl-3-methylimidazolium bromide]
molar heat capacity at constant pressure ([2]; 283.15 K, Crystal): 265.14 ± 15 J/K/mol
molar heat capacity at constant pressure ([2]; 293.15 K, Crystal): 269.52 ± 15 J/K/mol
molar heat capacity at constant pressure ([2]; 303.15 K, Crystal): 276.09 ± 15 J/K/mol
molar heat capacity at constant pressure ([2]; 313.15 K, Crystal): 289.24 ± 15 J/K/mol
molar heat capacity at constant pressure ([2]; 323.15 K, Crystal): 308.96 ± 15 J/K/mol
molar heat capacity at constant pressure ([2]; 333.15 K, Crystal): 361.55 ± 18 J/K/mol
molar heat capacity at constant pressure ([2]; 343.15 K, Crystal): 705.57 ± 26 J/K/mol
molar heat capacity at constant pressure ([2]; 353.15 K, Liquid): 352.79 ± 18 J/K/mol
molar heat capacity at constant pressure ([2]; 363.15 K, Liquid): 359.36 ± 18 J/K/mol
molar heat capacity at constant pressure ([2]; 373.15 K, Liquid): 363.74 ± 18 J/K/mol

CCCCn1cc[n+](C)c1.[Br-] [1-butyl-3-methylimidazolium bromide] + O
kinematic viscosity ([3]; 313.15 K): 2.21e-05 ± 9e-07 m2/s
kinematic viscosity ([3]; 323.15 K): 1.56e-05 ± 6.3e-07 m2/s
kinematic viscosity ([3]; 333.15 K): 1.14e-05 ± 4.6e-07 m2/s
kinematic viscosity ([3]; 343.15 K): 8.58e-06 ± 3.5e-07 m2/s
kinematic viscosity ([3]; 353.15 K): 6.65e-06 ± 2.7e-07 m2/s
kinematic viscosity ([3]; 363.15 K): 5.34e-06 ± 2.2e-07 m2/s
kinematic viscosity ([3]; 373.15 K): 4.34e-06 ± 1.8e-07 m2/s

From the NIST ThermoML archive (doi:10.1016/j.fluid.2017.07.024)
